A word on the EC50: it is the concentration at which the effect is half-maximal.

The results in this text go back to patent US11230526B1, “Cylcoalkenyl derivatives useful as agonists of the GPR120 and/or GPR40 receptors” (Janssen Pharmaceutica NV, priority 2018, dated 2022).

Common to all, as to assay type: cell-based
Assay [1] has as its target T1, Human GPR120 short form (Homo sapiens, UniProt Q5NUL3).
T1 construct: expressed in transfected cells
T1 sequence (Q5NUL3 1-361): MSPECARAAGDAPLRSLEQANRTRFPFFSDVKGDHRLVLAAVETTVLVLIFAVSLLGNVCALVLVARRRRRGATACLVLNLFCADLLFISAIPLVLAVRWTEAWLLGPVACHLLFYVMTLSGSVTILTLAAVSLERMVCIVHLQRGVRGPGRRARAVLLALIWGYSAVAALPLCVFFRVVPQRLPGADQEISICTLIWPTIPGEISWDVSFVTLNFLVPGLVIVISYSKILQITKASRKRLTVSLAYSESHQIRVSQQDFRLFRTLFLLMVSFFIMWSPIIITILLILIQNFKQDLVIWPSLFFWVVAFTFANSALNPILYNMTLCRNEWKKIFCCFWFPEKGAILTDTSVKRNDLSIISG
Description: Human GPR120 calcium flux assay, Procedure Calcium B (4200 cells/well). The gist of the method: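 Agonist EC50 came from a four-parameter fit of RFU (Fmax−Fmin) read over 300 s on FLIPR. Cells were HEK293 stably transfected with human GPR120 (NM_001195755.1) at 4200 per well, serum-starved 1 h and loaded with Fluo-4 NW dye with probenecid before ligand addition.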
Background: A change in cytosolic calcium serves as a functional read-out for many receptors and channels.

The target of another assay is T2, human GPR40 (Homo sapiens, UniProt O14842).
T2 construct: expressed in transfected cells
T2 sequence (O14842 whole entry): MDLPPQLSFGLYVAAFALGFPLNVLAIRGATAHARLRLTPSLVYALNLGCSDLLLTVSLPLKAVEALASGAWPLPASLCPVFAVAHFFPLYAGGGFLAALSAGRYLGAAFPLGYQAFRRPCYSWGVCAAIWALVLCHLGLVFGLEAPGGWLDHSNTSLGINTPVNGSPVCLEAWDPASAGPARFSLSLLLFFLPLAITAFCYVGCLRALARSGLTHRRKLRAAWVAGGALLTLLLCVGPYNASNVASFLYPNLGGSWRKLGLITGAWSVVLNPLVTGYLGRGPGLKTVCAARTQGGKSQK
Description: GPR40 calcium flux assay, human GPR40. The note with it: HEK293 cells stably expressing GPR40; table does not say human or rat. Put shortly: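 Cells preincubated 1 h at 37° C. in HBSS, 20 mM HEPES, 0.1% BSA, then Fluo 8 calcium dye 30 min at 37° C. and 15 min at room temperature.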

In assay [2] the target is T1, Human GPR120 short form. Description: Human GPR120 calcium flux assay, Procedure Calcium A (2500 cells/well). The gist of the method:
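HEK293 cells stably expressing human GPR120 short isoform (NM_001195755.1), 2500 cells/well, serum-starved 1 h at 37 °C and loaded with Fluo-4 NW plus probenecid. FLIPR fluorescence read for 300 s after compound addition; response = Fmax−Fmin. EC50 from four-parameter concentration–response fit.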

The structures appear in SMILES notation. A value given as a limit tells only on which side of the number the result lay.

As to `Cc1cc(CCC(=O)O)ccc1OCC1=C(c2ccc(Cl)cc2)CCCC1` [Compound 483, 3-[4-[[2-(4-chlorophenyl)cyclohexen-1-yl]methoxy]-3-methyl-phenyl]Propanoic Acid], the results for the EC50 at Human GPR120 short form [1], at human GPR40 and on Human GPR120 short form [2] were 52 nM, 3530 nM and 255 nM, respectively.
In the case of `Cc1ccc(C2=C(COc3c(F)cc(CCC(=O)O)cc3F)CCCC2)cc1F` [Compound 493, 3-[3,5-difluoro-4-[[2-(3-fluoro-4-methyl-phenyl)cyclohexen-1-yl]methoxy]phenyl]Propanoic Acid], the EC50 is 37 nM on Human GPR120 short form [1], more than 5000 nM at human GPR40 and 123 nM on Human GPR120 short form [2].
`Cc1ccc(C2=C(COc3ccc(CCC(=O)O)c(F)c3F)CCCC2)cc1F` [Compound 494, 3-[2,3-difluoro-4-[[2-(3-fluoro-4-methyl-phenyl)cyclohexen-1-yl]methoxy]phenyl]Propanoic Acid]: the concentration giving a half-maximal response (EC50) at Human GPR120 short form [1] is 37 nM; at human GPR40, more than 5000 nM; at Human GPR120 short form [2], 117 nM.
Regarding `Cc1ccc(C2=C(COc3ccc(CCC(=O)O)c(C)c3C)CCCC2)cc1F` [Compound 496, 3-[4-[[2-(3-fluoro-4-methyl-phenyl)cyclohexen-1-yl]methoxy]-2,3-dimethyl-phenyl]Propanoic Acid], the EC50 on Human GPR120 short form [1] is 81 nM; on human GPR40 it was more than 5000 nM; at Human GPR120 short form [2] it was 297 nM.
Regarding `O=C(O)CCc1ccc(OCC2=C(c3ccc(Cl)cc3)CCC(F)(F)C2)c(F)c1F` [Compound 503, 3-[4-[[2-(4-chlorophenyl)-5,5-difluoro-cyclohexen-1-yl]methoxy]-2,3-difluoro-phenyl]Propanoic Acid], the concentration giving a half-maximal response (EC50) at Human GPR120 short form [1] was 97 nM; on human GPR40, more than 5000 nM; on Human GPR120 short form [2], 493 nM.
Regarding `Cc1c(CCC(=O)O)ccc(OCC2=C(c3cccc(Cl)c3)CCCC2)c1C` [Compound 509, 3-[4-[[2-(3-chlorophenyl)cyclohexen-1-yl]methoxy]-2,3-dimethyl-phenyl]Propanoic Acid], the half-maximal effective concentration (EC50) was 414 nM at Human GPR120 short form [1], more than 10000 nM on human GPR40 and 963 nM on Human GPR120 short form [2].
Take `O=C(O)CCc1cc(F)c(OCC2=C(c3ccc(Cl)cc3)CCCC2)c(F)c1` [Compound 510, 3-[4-[[2-(4-chlorophenyl)cyclohexen-1-yl]methoxy]-3,5-difluoro-phenyl]Propanoic Acid]: the values for the concentration giving a half-maximal response (EC50) at Human GPR120 short form [1], at human GPR40 and on Human GPR120 short form [2] were 33 nM, more than 10000 nM and 561 nM, respectively.
As to `O=C(O)CCc1ccc(OCC2=C(c3ccc(Cl)cc3)CCCC2)c(F)c1` [Compound 511, 3-[4-[[2-(4-chlorophenyl)cyclohexen-1-yl]methoxy]-3-fluoro-phenyl]Propanoic Acid], the concentration giving a half-maximal response (EC50) at Human GPR120 short form [1] was 35 nM; at human GPR40, more than 10000 nM; on Human GPR120 short form [2], 572 nM.
Turning to `Cc1c(CCC(=O)O)ccc(OCC2=C(c3ccc(N(C)C)cc3)CCCC2)c1C` [Compound 512, 3-[4-[[2-(4-dimethylaminophenyl)cyclohexen-1-yl]methoxy]-2,3-dimethyl-phenyl]Propanoic Acid], the results for the half-maximal effective concentration (EC50) at Human GPR120 short form [1], at human GPR40 and on Human GPR120 short form [2] were 140 nM, more than 5000 nM and 808 nM, respectively.
Consider `O=C(O)CCc1ccc(OCC2=C(c3ccc(Cl)cc3)CCCC2)c(F)c1F` [Compound 513, 3-[4-[[2-(4-chlorophenyl)cyclohexen-1-yl]methoxy]-2,3-difluoro-phenyl]Propanoic Acid], for which the 50% effective concentration (EC50) on Human GPR120 short form [1] is 42 nM; at human GPR40 it was more than 5000 nM; on Human GPR120 short form [2], 331 nM.
The corresponding values for `O=C(O)CCc1ccc(OCC2=C(c3ccc(Cl)cc3)CCCC2)c2c1CCC2` [Compound 514, 3-[7-[[2-(4-chlorophenyl)cyclohexen-1-yl]methoxy]indan-4-yl]Propanoic Acid] are 53 nM, more than 5000 nM and 340 nM.
